Experimental data: PubChem BioAssay AID248 (DTP/NCI, 2004)
“And” between values parts separate entries of the source, which are not always exact repeats. Identical values can stand only once. Toxic doses and inconclusive results are not listed. No stated cut-off is given here; in the data, active means T/C of 150% or more; inactive means T/C below 125%.

Tested on: L1210 leukemia ip in BDF1 mice, survival T/C
Experiment: NCI In Vivo Anticancer Drug Screen. Data for tumor model L1210 Leukemia (intraperitoneal) in B6D2F1 (BDF1) mice
Conditions: endpoint: mean survival time, higher = longer survival
Summary of the method: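 Transplanted-tumor mice were given test agent; controls received vehicle only. Survival readings from the two groups were divided (treated over control).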

[1] = dose: 15.0 mg/kg/injection, schedule: Q01DX Z (ip), vehicle: saline
[2] = dose: 60.0 mg/kg/injection, schedule: Q01DX Z (ip), vehicle: saline
[3] = dose: 120.0 mg/kg/injection, schedule: Q01DX Z (ip), vehicle: saline
[4] = dose: 240.0 mg/kg/injection, schedule: Q01DX Z (ip), vehicle: saline
[5] = dose: 100.0 mg/kg/injection, schedule: Q04DX003 (ip), vehicle: Klucel (hydroxypropylcellulose) (HPC)
[6] = dose: 200.0 mg/kg/injection, schedule: Q04DX003 (ip), vehicle: Klucel (hydroxypropylcellulose) (HPC)
[7] = dose: 400.0 mg/kg/injection, schedule: Q04DX003 (ip), vehicle: Klucel (hydroxypropylcellulose) (HPC)
[8] = dose: 100.0 mg/kg/injection, schedule: Q01DX009 (ip), vehicle: Klucel (hydroxypropylcellulose) (HPC)
[9] = dose: 200.0 mg/kg/injection, schedule: Q01DX009 (ip), vehicle: Klucel (hydroxypropylcellulose) (HPC)
[10] = dose: 400.0 mg/kg/injection, schedule: Q01DX009 (ip), vehicle: Klucel (hydroxypropylcellulose) (HPC)
[11] = dose: 100.0 mg/kg/injection, schedule: Q01DX001 (ip), vehicle: Klucel (hydroxypropylcellulose) (HPC)
[12] = dose: 200.0 mg/kg/injection, schedule: Q01DX001 (ip), vehicle: Klucel (hydroxypropylcellulose) (HPC)
[13] = dose: 100.0 mg/kg/injection, schedule: Q01DX009 (ip), vehicle: saline with Tween-80
[14] = dose: 100.0 mg/kg/injection, schedule: Q04DX003 (ip), vehicle: saline with Tween-80
[15] = dose: 200.0 mg/kg/injection, schedule: Q01DX009 (ip), vehicle: saline with Tween-80
[16] = dose: 200.0 mg/kg/injection, schedule: Q04DX003 (ip), vehicle: saline with Tween-80
[17] = dose: 400.0 mg/kg/injection, schedule: Q04DX003 (ip), vehicle: saline with Tween-80

Measured: T/C

CN=C(N/N=C(C)\C=N\NC(=NC)N(C)C)N(C)C
inactive: [1] 90 % of control | dose: 30.0 mg/kg/injection, schedule: Q01DX Z (ip), vehicle: saline 106 % of control | [2] 95 % of control and 98 % of control | [3] 97 % of control and 101 % of control | dose: 120.0 mg/kg/injection, schedule: Q01DX Z (oral), vehicle: saline 96 % of control | [4] 95 % of control | dose: 240.0 mg/kg/injection, schedule: Q01DX Z (oral), vehicle: saline 91 % of control | dose: 960.0 mg/kg/injection, schedule: Q01DX Z (oral), vehicle: saline 94 % of control

O=S1(=O)C(c2ccccc2)CC1c1ccccc1 (configuration not stated)
inactive: dose: 75.0 mg/kg/injection, schedule: Q04DX003 (ip), vehicle: Klucel (hydroxypropylcellulose) (HPC) 107 % of control | dose: 150.0 mg/kg/injection, schedule: Q04DX003 (ip), vehicle: Klucel (hydroxypropylcellulose) (HPC) 104 % of control | dose: 300.0 mg/kg/injection, schedule: Q04DX003 (ip), vehicle: Klucel (hydroxypropylcellulose) (HPC) 96 % of control

CC1=N/C(=N\c2nc3cc(C)c(C)cc3[nH]2)NC(=O)CC1
inactive: dose: 75.0 mg/kg/injection, schedule: Q01DX001 (ip), vehicle: saline 104 % of control

Cc1cc(-c2ccccc2)c(-c2ccccn2)c2ccccc12
inactive: [5] 96 % of control | [6] 91 % of control | [7] 86 % of control

O=[N+]([O-])c1ccc(O)c(N=Cc2ccc(C=Nc3cc([N+](=O)[O-])ccc3O)cc2)c1
inactive: [8] 95 % of control and 86 % of control | [9] 97 % of control | [10] 103 % of control and 90 % of control

CN1CCC2CCCCC2C1Cc1ccc(CC2C3CCCCC3CCN2C)cc1 (configuration not stated)
inactive: dose: 2.5 mg/kg/injection, schedule: Q01DX001 (ip), vehicle: carboxymethylcellulose (CMC) 96 % of control | dose: 5.0 mg/kg/injection, schedule: Q01DX001 (ip), vehicle: carboxymethylcellulose (CMC) 96 % of control

COc1cc2cnc3c4cc(OC)c(OC)cc4ccc3c2cc1OC
inactive: dose: 80.0 mg/kg/injection, schedule: Q01DX009 (ip), vehicle: saline 88 % of control | dose: 120.0 mg/kg/injection, schedule: Q01DX009 (ip), vehicle: saline 90 % of control | dose: 240.0 mg/kg/injection, schedule: Q01DX009 (ip), vehicle: saline 91 % of control

Cc1c(Br)sc2ccccc12
inactive: dose: 100.0 mg/kg/injection, schedule: Q01DX001 (ip), vehicle: carboxymethylcellulose (CMC) 96 % of control | dose: 200.0 mg/kg/injection, schedule: Q01DX001 (ip), vehicle: carboxymethylcellulose (CMC) 96 % of control | dose: 400.0 mg/kg/injection, schedule: Q01DX001 (ip), vehicle: carboxymethylcellulose (CMC) 107 % of control

O=C1OCC(CN2CC3CCC(CC3)C2)=C1c1ccccc1
inactive: [11] 94 % of control | [12] 102 % of control | dose: 400.0 mg/kg/injection, schedule: Q01DX001 (ip), vehicle: Klucel (hydroxypropylcellulose) (HPC) 94 % of control

O=C(CCN1CC1)OCC1CC1
inactive: dose: 2.5 mg/kg/injection, schedule: Q01DX009 (ip), vehicle: Klucel (hydroxypropylcellulose) (HPC) 103 % of control | dose: 5.0 mg/kg/injection, schedule: Q01DX009 (ip), vehicle: Klucel (hydroxypropylcellulose) (HPC) 97 % of control | dose: 10.0 mg/kg/injection, schedule: Q01DX009 (ip), vehicle: Klucel (hydroxypropylcellulose) (HPC) 105 % of control | dose: 20.0 mg/kg/injection, schedule: Q01DX009 (ip), vehicle: Klucel (hydroxypropylcellulose) (HPC) 114 % of control | dose: 20.0 mg/kg/injection, schedule: Q04DX003 (ip), vehicle: Klucel (hydroxypropylcellulose) (HPC) 98 % of control | dose: 40.0 mg/kg/injection, schedule: Q04DX003 (ip), vehicle: Klucel (hydroxypropylcellulose) (HPC) 101 % of control | dose: 80.0 mg/kg/injection, schedule: Q04DX003 (ip), vehicle: Klucel (hydroxypropylcellulose) (HPC) 97 % of control

CCOC(=O)C(C(=O)Nc1ccccc1)C(=O)OCC
inactive: [8] 99 % of control | [5] 90 % of control | [9] 100 % of control | [6] 93 % of control | [10] 105 % of control | [7] 98 % of control

CN(C)CCc1ccccc1
inactive: dose: 25.6 mg/kg/injection, schedule: Q04DX002 (ip), vehicle: saline with Tween-80 100 % of control | dose: 64.0 mg/kg/injection, schedule: Q04DX002 (ip), vehicle: saline with Tween-80 103 % of control | [13] 100 % of control | [14] 102 % of control | dose: 160.0 mg/kg/injection, schedule: Q04DX002 (ip), vehicle: saline with Tween-80 103 % of control | [15] 95 % of control | [16] 102 % of control | dose: 400.0 mg/kg/injection, schedule: Q04DX002 (ip), vehicle: saline with Tween-80 100 % of control | [17] 100 % of control

Cc1ccc(NC(N)=S)cc1
inactive: dose: 25.0 mg/kg/injection, schedule: Q04DX003 (ip), vehicle: Klucel (hydroxypropylcellulose) (HPC) 107 % of control | dose: 50.0 mg/kg/injection, schedule: Q04DX003 (ip), vehicle: Klucel (hydroxypropylcellulose) (HPC) 98 % of control | [5] 101 % of control

Cc1n[nH]c(C)c1C(C)C
inactive: dose: 50.0 mg/kg/injection, schedule: Q01DX001 (ip), vehicle: saline 103 % of control | dose: 100.0 mg/kg/injection, schedule: Q01DX001 (ip), vehicle: saline 101 % of control | dose: 200.0 mg/kg/injection, schedule: Q01DX001 (ip), vehicle: saline 86 % of control

COc1ccc(Cl)cc1NC(=O)c1ccc(C(=O)Nc2cc(Cl)ccc2OC)cc1
inactive: dose: 50.0 mg/kg/injection, schedule: Q01DX009 (ip), vehicle: Klucel (hydroxypropylcellulose) (HPC) 109 % of control | [8] 90 % of control | [9] 86 % of control and 92 % of control | [10] 94 % of control

CCOc1ccn(CC(=O)c2ccc(Cl)s2)c(=O)n1
inactive: [13] 93 % of control | [14] 100 % of control | [15] 90 % of control | [16] 100 % of control | dose: 400.0 mg/kg/injection, schedule: Q01DX009 (ip), vehicle: saline with Tween-80 86 % of control | [17] 101 % of control

Nc1ncnc(N)c1NC(=O)c1ccc(OCCOc2ccccc2)c(Cl)c1
inactive: dose: 25.0 mg/kg/injection, schedule: Q04DX003 (ip), vehicle: saline with Tween-80 89 % of control | dose: 50.0 mg/kg/injection, schedule: Q04DX003 (ip), vehicle: saline with Tween-80 93 % of control | [14] 98 % of control

O=C(O)c1cccc(C#Cc2ccccc2)c1
inactive: [11] 97 % of control | [12] 103 % of control

CC(O)C(NCNC(=O)C1=C(O)C2(O)C(=O)C3=C(O)c4c(O)cccc4C(C)(O)C3CC2C(N(C)C)C1=O)C(=O)O (configuration not stated)
inactive: dose: 1.0 mg/kg/injection, schedule: Q01DX Z (ip), vehicle: saline 110 % of control | dose: 4.0 mg/kg/injection, schedule: Q01DX Z (ip), vehicle: saline 100 % of control | dose: 14.0 mg/kg/injection, schedule: Q01DX Z (ip), vehicle: saline 91 % of control | [1] 96 % of control | dose: 28.0 mg/kg/injection, schedule: Q01DX Z (ip), vehicle: saline 102 % of control | dose: 56.0 mg/kg/injection, schedule: Q01DX Z (ip), vehicle: saline 91 % of control | [2] 98 % of control | dose: 100.0 mg/kg/injection, schedule: Q04DX003 (ip), vehicle: saline 98 % of control | [3] 93 % of control | dose: 200.0 mg/kg/injection, schedule: Q04DX003 (ip), vehicle: saline 100 % of control | dose: 224.0 mg/kg/injection, schedule: Q01DX Z (ip), vehicle: saline 91 % of control | [4] 95 % of control and 98 % of control | dose: 400.0 mg/kg/injection, schedule: Q04DX003 (ip), vehicle: saline 109 % of control | dose: 448.0 mg/kg/injection, schedule: Q01DX Z (ip), vehicle: saline 93 % of control | dose: 480.0 mg/kg/injection, schedule: Q01DX Z (ip), vehicle: saline 107 % of control
